Measurements from US20240246964A1 (Arbutus Biopharma Corporation, priority 2021, published 2024).

Each compound was assayed against human PD-L1 (Homo sapiens (Human), UniProt Q9NZQ7) (assay: T cell activation luciferase reporter cell culture system (T Cell Activation Assay)). Conditions: luciferase reporter assay; PD-L1 aAPC/CHO-K1 cells with PD-1 effector Jurkat T cells.
Format: cell-based

human PD-L1, sequence (Q9NZQ7 19-290): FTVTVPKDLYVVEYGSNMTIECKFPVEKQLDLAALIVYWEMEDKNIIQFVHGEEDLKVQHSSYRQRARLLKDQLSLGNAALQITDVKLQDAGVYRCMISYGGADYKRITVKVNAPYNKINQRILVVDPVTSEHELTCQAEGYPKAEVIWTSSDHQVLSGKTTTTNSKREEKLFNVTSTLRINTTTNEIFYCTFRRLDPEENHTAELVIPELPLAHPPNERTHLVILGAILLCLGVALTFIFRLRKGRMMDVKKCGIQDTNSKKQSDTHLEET

| EC50 [µM] | Structure (SMILES) |
| --- | --- |
| 0.3 | COc1cc(-c2nccc(-c3cccc(-c4ccn5c(=O)c(CNC[C@@H]6CCC(=O)N6)cnc5c4)c3Cl)c2Cl)ccc1CNC[C@@H]1CCC(=O)N1 [Cmpd 1, 8-(2-chloro-3-(3-chloro-2-(3-methoxy-4-(((((S)-5-oxopyrrolidin-2-yl)methyl)amino)methyl)phenyl)pyridin-4-yl)phenyl)-3-(((((S)-5-oxopyrrolidin-2-yl)methyl)amino)methyl)-4H-pyrido[1,2-a]pyrimidin-4-one] |
| 0.0876 | COc1nc(-c2cccc(-c3ccnc(-c4ccn5c(=O)c(CNC[C@@H]6CCC(=O)N6)cnc5c4)c3Cl)c2Cl)ccc1CNC[C@@H]1CCC(=O)N1 [Cmpd 2, 8-(3-chloro-4-(2-chloro-3-(6-methoxy-5-(((((S)-5-oxopyrrolidin-2-yl)methyl)amino)methyl)pyridin-2-yl)phenyl)pyridin-2-yl)-3-(((((S)-5-oxopyrrolidin-2-yl)methyl)amino)methyl)-4H-pyrido[1,2-a]pyrimidin-4-one] |
| 0.0429 | COc1nc(-c2cccc(-c3ccnc(-c4ccc5c(c4)N(C)CCNC5)c3Cl)c2Cl)ccc1CNC[C@@H]1CCC(=O)N1 [Cmpd 3, (S)-5-((((6-(2-chloro-3-(3-chloro-2-(1-methyl-2,3,4,5-tetrahydro-1H-benzo[e][1,4]diazepin-8-yl)pyridin-4-yl)phenyl)-2-methoxypyridin-3-yl)methyl)amino)methyl)pyrrolidin-2-one] |
| 0.172 | COc1nc(-c2cccc(-c3ccnc(-c4ccc5c(c4)N(C)CCNC5)c3Cl)c2Cl)ccc1CNCC(C)NC(C)=O (stereo not shown) [Cmpd 5, N-(1-(((6-(2-chloro-3-(3-chloro-2-(1-methyl-2,3,4,5-tetrahydro-1H-benzo[e][1,4]diazepin-8-yl)pyridin-4-yl)phenyl)-2-methoxypyridin-3-yl)methyl)amino)propan-2-yl)acetamide] |
| 0.0223 | COc1cc(-c2nccc(-c3cccc(-c4ccc(CNC[C@@H]5CCC(=O)N5)c(OC)n4)c3Cl)c2Cl)cc2c1CN(C[C@@H]1CCC(=O)N1)CC2 [Cmpd 6, (S)-5-((((6-(2-chloro-3-(3-chloro-2-(8-methoxy-2-(((S)-5-oxopyrrolidin-2-yl)methyl)-1,2,3,4-tetrahydroisoquinolin-6-yl)pyridin-4-yl)phenyl)-2-methoxypyridin-3-yl)methyl)amino)methyl)pyrrolidin-2-one] |
| 0.0535 | COc1cc(-c2nccc(-c3cccc(-c4ccc(CNC[C@@H]5CCC(=O)N5)c(OC)n4)c3Cl)c2Cl)cc2c1CNCC2 [Cmpd 7, (S)-5-((((6-(2-chloro-3-(3-chloro-2-(8-methoxy-1,2,3,4-tetrahydroisoquinolin-6-yl)pyridin-4-yl)phenyl)-2-methoxypyridin-3-yl)methyl)amino)methyl)pyrrolidin-2-one] |
| 0.0209 | COc1cc(-c2nccc(-c3cccc(-c4ccc(CNC[C@@H]5CCC(=O)N5)c(OC)n4)c3Cl)c2Cl)cc(F)c1CNC[C@@H]1CCC(=O)N1 [Cmpd 10, (S)-5-((((6-(2-chloro-3-(3-chloro-2-(3-fluoro-5-methoxy-4-(((((S)-5-oxopyrrolidin-2-yl)methyl)amino)methyl)phenyl)pyridin-4-yl)phenyl)-2-methoxypyridin-3-yl)methyl)amino)methyl)pyrrolidin-2-one] |
| 0.0614 | COc1nc(-c2cccc(-c3ccnc(-c4ccc5c(c4)N(C)CCN(C[C@@H]4CCC(=O)N4)C5)c3Cl)c2Cl)ccc1CNC[C@@H]1CCC(=O)N1 [Cmpd 19, (S)-5-((((6-(2-chloro-3-(3-chloro-2-(1-methyl-4-(((S)-5-oxopyrrolidin-2-yl)methyl)-2,3,4,5-tetrahydro-1H-benzo[e][1,4]diazepin-8-yl)pyridin-4-yl)phenyl)-2-methoxypyridin-3-yl)methyl)amino)methyl)pyrrolidin-2-one] |
| 0.0256 | COc1cc(-c2nccc(-c3cccc(-c4cc(Cl)c(CNC[C@@H]5CCC(=O)N5)c(OC)n4)c3Cl)c2Cl)cc2c1CN(C[C@@H]1CCC(=O)N1)CC2 [Cmpd 37, (S)-5-((6-(3-chloro-4-(2-chloro-3-(4-chloro-6-methoxy-5-(((((S)-5-oxopyrrolidin-2-yl)methyl)amino)methyl)pyridin-2-yl)phenyl)pyridin-2-yl)-8-methoxy-3,4-dihydroisoquinolin-2(1H)-yl)methyl)pyrrolidin-2-one] |
| 0.0541 | COc1cc(-c2nccc(-c3cccc(-c4ccc(CNC[C@@H]5CCC(=O)N5)c(OC)n4)c3Cl)c2Cl)cc2c1CCN(C[C@H](C)O)C2 [Cmpd 44, (S)-5-((((6-(2-chloro-3-(3-chloro-2-(2-((S)-2-hydroxypropyl)-5-methoxy-1,2,3,4-tetrahydroisoquinolin-7-yl)pyridin-4-yl)phenyl)-2-methoxypyridin-3-yl)methyl)amino)methyl)pyrrolidin-2-one] |
| 10 | COc1nc(-c2cccc(-c3ccnc(-c4cc(F)c5c(c4)CN(CC(C)(C)O)CC5)c3Cl)c2Cl)ccc1CNC[C@@H]1CCC(=O)N1 [Cmpd 47, (S)-5-((((6-(2-chloro-3-(3-chloro-2-(5-fluoro-2-(2-hydroxy-2-methylpropyl)-1,2,3,4-tetrahydroisoquinolin-7-yl)pyridin-4-yl)phenyl)-2-methoxypyridin-3-yl)methyl)amino)methyl)pyrrolidin-2-one] |

Continued, compound first:

| Structure (SMILES) | EC50 [µM] |
| --- | --- |
| COc1nc(-c2cccc(-c3ccnc(-c4ccc(CNC5CCN(C)C(=O)C5)c(OC(F)F)c4)c3Cl)c2Cl)ccc1CNC1CCN(C)C(=O)C1 (racemic) [Example 619, 4-(((6-(2-Chloro-3-(3-chloro-2-(3-(difluoromethoxy)-4-(((1-methyl-2-oxopiperidin-4-yl)amino)methyl)phenyl)pyridin-4-yl)phenyl)-2-methoxypyridin-3-yl)methyl)amino)-1-methylpiperidin-2-one] | 0.0669 |
| COc1cc(-c2nccc(-c3cccc(-c4ccc(CNC[C@@H]5CCC(=O)N5)c(OC)n4)c3Cl)c2Cl)ccc1CNC[C@@H]1CCC(=O)N1 [Cmpd 8, (S)-5-((((6-(2-chloro-3-(3-chloro-2-(3-methoxy-4-(((((S)-5-oxopyrrolidin-2-yl)methyl)amino)methyl)phenyl)pyridin-4-yl)phenyl)-2-methoxypyridin-3-yl)methyl)amino)methyl)pyrrolidin-2-one] | 0.015 |
| COc1nc(-c2cccc(-c3ccnc(-c4ccc5c(CNC[C@@H]6CCC(=O)N6)cn(C)c5c4)c3Cl)c2Cl)ccc1CNC[C@@H]1CCC(=O)N1 [Cmpd 11, (S)-5-((((6-(2-chloro-3-(3-chloro-2-(1-methyl-3-(((((S)-5-oxopyrrolidin-2-yl)methyl)amino)methyl)-1H-indol-6-yl)pyridin-4-yl)phenyl)-2-methoxypyridin-3-yl)methyl)amino)methyl)pyrrolidin-2-one] | 0.084 |
| COc1nc(-c2cccc(-c3ccnc(-c4cnc5c(CNC[C@@H]6CCC(=O)N6)cn(C)c5c4)c3Cl)c2Cl)ccc1CNC[C@@H]1CCC(=O)N1 [Cmpd 13, (S)-5-((((6-(2-chloro-3-(3-chloro-2-(1-methyl-3-(((((S)-5-oxopyrrolidin-2-yl)methyl)amino)methyl)-1H-pyrrolo[3,2-b]pyridin-6-yl)pyridin-4-yl)phenyl)-2-methoxypyridin-3-yl)methyl)amino)methyl)pyrrolidin-2-one] | 0.0777 |
| COc1cc(-c2nccc(-c3cccc(-c4cnc(CNC[C@@H]5CCC(=O)N5)c(OC)n4)c3Cl)c2Cl)ccc1CNC[C@@H]1CCC(=O)N1 [Cmpd 20, (S)-5-((((5-(2-chloro-3-(3-chloro-2-(3-methoxy-4-(((((S)-5-oxopyrrolidin-2-yl)methyl)amino)methyl)phenyl)pyridin-4-yl)phenyl)-3-methoxypyrazin-2-yl)methyl)amino)methyl)pyrrolidin-2-one] | 0.0223 |
| COc1cc(-c2nccc(-c3cccc(-c4ccc(CNC[C@@H]5CCC(=O)N5)c(OC)n4)c3Cl)c2Cl)cc2c1CN(C[C@@H](C)O)CC2 [Cmpd 27, (S)-5-((((6-(2-chloro-3-(3-chloro-2-(2-((R)-2-hydroxypropyl)-8-methoxy-1,2,3,4-tetrahydroisoquinolin-6-yl)pyridin-4-yl)phenyl)-2-methoxypyridin-3-yl)methyl)amino)methyl)pyrrolidin-2-one] | 0.0251 |
| COc1cc(-c2nccc(-c3cccc(-c4ccc(CNC[C@@H]5CCC(=O)N5)c(OC)n4)c3Cl)c2Cl)cc2c1CCN(CC(C)(C)O)C2 [Cmpd 45, (S)-5-((((6-(2-chloro-3-(3-chloro-2-(2-(2-hydroxy-2-methylpropyl)-5-methoxy-1,2,3,4-tetrahydroisoquinolin-7-yl)pyridin-4-yl)phenyl)-2-methoxypyridin-3-yl)methyl)amino)methyl)pyrrolidin-2-one] | 0.892 |
| COc1nc(-c2cccc(-c3ccnc(-c4cc(F)c5c(c4)CCN(CC(C)(C)O)C5)c3Cl)c2Cl)ccc1CNC[C@@H]1CCC(=O)N1 [Cmpd 46, (S)-5-((((6-(2-chloro-3-(3-chloro-2-(8-fluoro-2-(2-hydroxy-2-methylpropyl)-1,2,3,4-tetrahydroisoquinolin-6-yl)pyridin-4-yl)phenyl)-2-methoxypyridin-3-yl)methyl)amino)methyl)pyrrolidin-2-one] | 0.171 |
| COc1cc(-c2nccc(-c3cccc(-c4ccc(CNC[C@@H]5CCC(=O)N5)c(OC)n4)c3Cl)c2Cl)cc2c1CN(CCC(C)(C)O)CC2 [Cmpd 49, (S)-5-((((6-(2-chloro-3-(3-chloro-2-(2-(3-hydroxy-3-methylbutyl)-8-methoxy-1,2,3,4-tetrahydroisoquinolin-6-yl)pyridin-4-yl)phenyl)-2-methoxypyridin-3-yl)methyl)amino)methyl)pyrrolidin-2-one] | 0.037 |
| COc1cc(-c2nccc(-c3cccc(-c4ccc(CNC[C@@H]5CCC(=O)N5)c(OC)n4)c3Cl)c2Cl)cc2c1CN(C[C@H](C)O)CC2 [Cmpd 50, (S)-5-((((6-(2-chloro-3-(3-chloro-2-(2-((S)-2-hydroxypropyl)-8-methoxy-1,2,3,4-tetrahydroisoquinolin-6-yl)pyridin-4-yl)phenyl)-2-methoxypyridin-3-yl)methyl)amino)methyl)pyrrolidin-2-one] | 0.0291 |
| COc1cc(-c2nccc(-c3cccc(-c4ccc(CNC[C@@H]5CCC(=O)N5)c(OC)n4)c3Cl)c2Cl)cc2c1CN(CCC1(O)CCC1)CC2 [Cmpd 51, (S)-5-((((6-(2-chloro-3-(3-chloro-2-(2-(2-(1-hydroxycyclobutyl)ethyl)-8-methoxy-1,2,3,4-tetrahydroisoquinolin-6-yl)pyridin-4-yl)phenyl)-2-methoxypyridin-3-yl)methyl)amino)methyl)pyrrolidin-2-one] | 0.0745 |
